These results are taken from ChEMBL document CHEMBL4680281, “Recent Advances on Nitrones Design for Stroke Treatment” (J Med Chem, 2020).

The nature of series [1]: Antioxidant activity assessed as SIN1-induced ONOO scavenging activity at 1 mM incubated for 1250 secs by chemiluminescence method relative to control. It counts as functional. To be noted: time 1250.0 sec.
The test system of the next series is Rattus norvegicus. As to the kind of experiment: Neuroprotective activity in Sprague-Dawley rat model of permanent middle cerebral artery occlusion assessed as infarction volume at 80 mg/kg, ip administered 2 hr post MCAO induction and measured 14 hrs post MCAO challenge by TTC staining based assay (reference value: 27.5%). Type of series: functional. Particulars: time 12 hrs.

Series [2] can be described thus: Antioxidant activity assessed as SIN1-induced ONOO scavenging activity at 1 uM incubated for 1250 secs by chemiluminescence method relative to control. It counts as functional. To be noted: time 1250.0 sec.
The nature of series [3]: Drug concentration in Sprague-Dawley rat brain at 80 mg/kg, iv measured after 5 mins by reverse-phase HPLC method. Type of series: ADME, organism-based. To be noted: read-out: Ct.

Turning to `Cc1nc(C)c(/C=[N+](\[O-])C(C)(C)C)nc1C`, the results for the Activity (in series [1]; with Rattus norvegicus; in series [2]) were 94.7%, 20.3% and 35.3%, respectively. Further, the concentration at 5 min in series [3] was 650 µM.
